For five compounds, chromatographic logP, pest or weed control and inhibition results are on record in patent US12552748B2, “Pyridine (thio)amides as fungicidal compounds” (Bayer Aktiengesellschaft, priority 2020, dated 2026).

One data set is described as follows: physchem. Format: physicochemical. Put shortly: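 Reversed-phase HPLC per EEC directive 79/831 Annex V.A8, calibrated with straight-chain alkan-2-ones (C3–C16) of known Log P via linear interpolation of retention times. Lambda-max from UV spectra 200–400 nm at chromatographic peaks.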
Another data set concerns Botrytis cinerea. The data set is described as follows: In vivo preventive test on Botrytis cinerea (grey mould). The following applies: 500 ppm of active ingredient, preventive spray on gherkin or cabbage, evaluated 4 to 5 days after inoculation, 0% = control plants, 100% = no disease, read-out: efficacy. The procedure: B-2. In Vivo Preventive Test on Botrytis cinerea (Grey Mould [table] The active ingredients were made soluble and homogenized in a mixture of Dimethyl sulfoxide/Acetone/Tween® 80 and then diluted in water to the desired concentration. The young plants of gherkin or cabbage were treated by spraying the active ingredient prepared as described above. Control plants were treated only with an aqueous solution of Acetone/Dimethyl sulfoxide/Tween® 80. After 24 hours, the plants were contaminated by spraying the leaves with an aqueous suspension of Botrytis cinerea spores.

The next data set concerns Sphaerotheca fuliginea. The data set is described as follows: In vivo preventive test on Sphaerotheca fuliginea (powdery mildew on cucurbits). Conditions: Podosphaera fuliginea, 192 h; 500 ppm of active ingredient; preventive spray on gherkin; evaluated 8 days after inoculation; 0% = control plants, 100% = no disease; read-out: efficacy. The procedure:
B-4. In Vivo Preventive Test on Sphaerotheca fuliginea (Powdery Mildew on Cucurbits [table] The active ingredients were made soluble and homogenized in a mixture of Dimethyl sulfoxide/Acetone/Tween® 80 and then diluted in water to the desired concentration. The young plants of gherkin were treated by spraying the active ingredient prepared as described above. Control plants were treated only with an aqueous solution of Acetone/Dimethyl sulfoxide/Tween® 80. After 24 hours, the plants were contaminated by spraying the leaves with an aqueous suspension of Sphaerotheca fuliginea spores.

In another data set the test system is Alternaria alternata. The experiment in a line: Alternaria alternata in vitro cell test. Format: cell-based. The following applies: 120 h, 20 ppm of active ingredient, liquid culture with spores, 5 days incubation, spectrometric measurement of mycelium growth, read-out: efficacy (inhibition of fungal growth). Here is the method:
(§1) B-6. Alternaria alternata In Vitro Cell Test • Solvent: DMSO • Culture medium: 14.6 g anhydrous D-glucose (VWR), 7.1 g Mycological Peptone (Oxoid), 1.4 g granulated Yeast Extract (Merck), QSP 1 liter • Inoculum: spores suspension Fungicides were solubilized in DMSO and the solution used to prepare the required range of concentrations. […] A spore suspension of A. alternata was prepared and diluted to the desired spore density. Fungicides were evaluated for their ability to inhibit spore germination and mycelium growth in liquid culture assay. The compounds were added in the desired concentration to the culture medium with spores. After 5 days incubation, fungi-toxicity of compounds was determined by spectrometric measurement of mycelium growth. Inhibition of fungal growth was determined by comparing the absorbance values in wells containing the fungicides with the absorbance in control wells without fungicides.

In another data set the test system is Pyricularia oryzae. The data set is described as follows: microbe, parasite or virus in culture. In kind it is cell-based. The following applies: 120 h, read-out: efficacy (inhibition of fungal growth).
In data set [1] the test system is Colletotrichum lindemuthianum. The data set is described as follows: Colletotrichum lindemuthianum in vitro cell test. Format: cell-based. The following applies: 144 h, read-out: efficacy (inhibition of fungal growth). The procedure:
B-8. Colletotrichum lindemuthianum In Vitro Cell Test
• Solvent: DMSO • Culture medium: 14.6 g anhydrous D-glucose (VWR), 7.1 g Mycological Peptone (Oxoid), 1.4 g granulated Yeast Extract (Merck), QSP 1 liter • Inoculum: spores suspension
Fungicides were solubilized in DMSO and the solution used to prepare the required range of concentrations. The final concentration of DMSO used in the assay was ≤1%.
A spore suspension of C. lindemuthianum was prepared and diluted to the desired spore density.
Fungicides were evaluated for their ability to inhibit spores germination and mycelium growth in liquid culture assay. The compounds were added in the desired concentration to the culture medium with spores. After 6 days incubation, fungi-toxicity of compounds was determined by spectrometric measurement of mycelium growth. Inhibition of fungal growth was determined by comparing the absorbance values in wells containing the fungicides with the absorbance in control wells without fungicides.

For another data set, the system named is Pyrenophora teres. The data set is described as follows: Pyrenophora teres in vitro cell test. In kind it is cell-based. The following applies: 144 h, 20 ppm of active ingredient, liquid culture with spores, 6 days incubation, spectrometric measurement of mycelium growth, read-out: efficacy (inhibition of fungal growth). Here is the method:
as §1, with “B-9. Pyrenophora Teres In” for “B-6. Alternaria alternata In”, “Inoculum: spore” for “Inoculum: spores”, “of P. teres” for “of A. alternata”, “After 6” for “After 5”

Usually chromatographic logP stands for a lipophilicity value derived from retention on a column. Lower therefore signals lower lipophilicity. The term inhibition denotes the relative decrease from the control value, in per cent.

For the compound `Cc1ccc(C(F)(F)CNC(=O)c2c(Oc3cccc(C(F)(F)F)c3)cnc(Cl)c2-n2cccn2)c(C)c1` [Compound I-167, 2-chloro-N-[2-(2,4-dimethylphenyl)-2,2-difluoroethyl]-3-(1H-pyrazol-1-yl)-5-[3-(trifluoromethyl)phenoxy]pyridine-4-carboxamide], the chromatographic logP in “physchem” came to 4.51. The pest or weed control at 500 ppm in the data set with Botrytis cinerea and with Sphaerotheca fuliginea was 90 to 100% throughout. Further, the inhibition at 20 ppm lay within 90 to 100% with Alternaria alternata, 80 to 89% in the data set on Pyricularia oryzae, 80 to 89% in data set [1] and 90 to 100% in the data set on Pyrenophora teres.
In turn, `Cc1ccc(C(F)(F)CNC(=O)c2c(Oc3cccc(C(F)(F)F)c3)cnc(Cl)c2C)c(C)c1` [Compound I-019, 2-chloro-N-[2-(2,4-dimethylphenyl)-2,2-difluoro-ethyl]-3-methyl-5-[3-(trifluoromethyl)phenoxy]pyridine-4-carboxamide] displayed a chromatographic logP in “physchem” of 4.64. In addition, the pest or weed control at 500 ppm with Botrytis cinerea and with Sphaerotheca fuliginea was 90 to 100% throughout. For the same compound, the inhibition at 20 ppm (in the data set with Alternaria alternata; with Pyricularia oryzae; in data set [1]) was 90 to 100% throughout.
`Cc1ccc(CCNC(=O)c2cc(Cl)ncc2Oc2ccc3c(c2)OC(F)(F)O3)c(C)c1` [Compound I-140, 2-chloro-5-[(2,2-difluoro-1,3-benzodioxol-5-yl)oxy]-N-[2-(2,4-dimethylphenyl)ethyl]pyridine-4-carboxamide]: the chromatographic logP in “physchem” turned out to be 4.82. The values for the pest or weed control at 500 ppm with Botrytis cinerea and in the data set on Sphaerotheca fuliginea were 70 to 79% and 90 to 100%, respectively. Moreover, the inhibition at 20 ppm in the data set on Pyrenophora teres lay in the range of 90 to 100%.
In the data set “physchem”, `CC(=O)c1cc(C(=O)NCCc2ccc(C)cc2C)c(Oc2cccc(C(F)(F)F)c2)cn1` [Compound I-087, 2-acetyl-N-[2-(2,4-dimethylphenyl)ethyl]-5-[3-(trifluoromethyl)phenoxy]pyridine-4-carboxamide] displayed a chromatographic logP of 4.47. Also, the pest or weed control at 500 ppm is 90 to 100% with Botrytis cinerea and 80 to 89% with Sphaerotheca fuliginea. Besides, the results for the inhibition at 20 ppm (in the data set on Alternaria alternata; in the data set on Pyricularia oryzae; in data set [1]) were 90 to 100%, 80 to 89% and 80 to 89%, respectively.
`O=C(NCC(F)(F)c1ccc(C2CCCC2)cc1Cl)c1cc(Cl)ncc1Oc1cccc(C(F)F)c1` [Compound I-124, 2-chloro-N-[2-(2-chloro-4-cyclopentyl-phenyl)-2,2-difluoro-ethyl]-5-[3-(difluoromethyl)phenoxy]pyridine-4-carboxamide] showed a chromatographic logP in the data set “physchem” of 5.5. Also, the inhibition at 20 ppm in the data set with Pyrenophora teres lay in the range of 90 to 100%.
